Measured values: the NIST ThermoML archive (doi:10.1016/j.fluid.2005.03.019)

Columns and labels:
[1] = refractive index (Na D-line) (dimensionless); conditions: 293.1 K; 101.33 kPa; Liquid; Standard Abbe refractometry
[2] = Liquid

CC(C)COC(=O)C1CCCCC1C(=O)OCC(C)C (stereo unspecified) [diisobutyl hexahydrophthalate]
Conditions	refractive index
[1]	1.453

[2]
Conditions	vapor or sublimation pressure [kPa]
434.4 K	0.732
448.2 K	1.539
463.3 K	2.912
478.7 K	4.813
486.4 K	6.342
491.5 K	7.672
500.3 K	10.2
506.6 K	12.5
509.6 K	13.99
515 K	16.31
519.5 K	18.67
524.1 K	21.3
527.8 K	23.69
534.8 K	28.61
538.2 K	30.94
